Measurements from patent US20050112573A1, “Method of detecting toxic substance” (priority 2001, published 2005).

System: yeast genes (level of expressed mRNA)
Test: DNA chip analysis of expressed mRNA of yeast genes after 2 h culture with a toxic chemical substance
Type: cell-based, Saccharomyces cerevisiae S288C
Protocol: Yeast (Saccharomyces cerevtisiae S288C (α SUC2mal mel gap2 CUP1)) were cultured at 25° C. on YPD medium (yeast extract 1%, polypepton 2%, glucose 2%). One of toxic chemical substances was added to the cell at logarithmic growth phase, and the cell was further cultured for two hours. Cell was cultured without any chemical substance in the same condition, and was used as control. Concentrations of the chemical substances were defined to inhibit the growth of the yeast but not lead to death.
After the completion of cultivation, the culture was centrifuged to collect the cells. To the cells, sodium acetate buffer (50 mM sodium acetate, 10 mM EDTA, 1% SDS) was added, and the mixture was shaken at 65° C. for five minutes, followed by returning to room temperature, and obtaining the supernatant, which procedure was repeated two times. To the supernatant, ½ amount of a solution of phenol/chloroform was added, and the mixture was centrifuged to give a supernatant, which was added with an equal amount of chloroform, and the mixture was centrifuged to give a supernatant. To the supernatant, an equal amount of isopropanol containing 0.3 M sodium acetate was added, and the mixture was allowed to stand at room temperature for 30 minutes, after which the mixture was centrifuged to give a sediment of the whole RNAs. Seventy % ethanol was added to the sediment, and the mixture was again centrifuged to give a sediment, which was then dried and dissolved in water. mRNA was isolated from the whole RNAs as followings. In view of the fact that a poly A chain is attached to the 3′ terminus of mRNA, a polynucleotide having a poly T structure which was immobilized on the surface of latex beads was used to trap the mRNA, and then the mRNA was washed and eluted with spine column (Oligotex-dT30<Super>mRNA Purification Kit, Takara). Reverse transcription of the mRNA was conducted with a reverse transcriptase (Super Script II Reverse Transcriptase; catalogue No. 18064-014, GibcoBRL) using fluorescence-labeled nucleotides to give cDNAs that were introduced with Cy3-dUTP or Cy5-dUTP during the reverse transcription.
The labeled cDNAs were dissolved in TE buffer (10 mM Tris-HCl/1 mM EDTA, pH8.0), and the solution was dropped on the DNA chip containing the whole genes of yeast (DNA Chip Research Inc. Japan) so that the cDNAs were hybridized on the DNA chip at 65° C. for over 12 hours. The fluoresces intensity of the DNA chip was read with a scanner, and the ratio relative to the fluorescence intensity resulting from the absence of chemical substance was estimated as the following, which is shown in Tables 1 to 9: [formula]
In the Tables, “Intensity” indicated in the rightmost column is a value of the level of expressed mRNA of each gene in control cells as divided by the average level of the expressions of the whole genes.

CN(C)C(=S)SSC(=S)N(C)C [(10), Tetramethylthiuram disulfide]
The level of expressed mRNA in the presence of chemical substance/The level of expressed mRNA in the absence of chemical substance (yeast gene YKL013C): 1.4 | The level of expressed mRNA in the presence of chemical substance/The level of expressed mRNA in the absence of chemical substance (yeast gene YKL039W): 3.3 | The level of expressed mRNA in the presence of chemical substance/The level of expressed mRNA in the absence of chemical substance (yeast gene YKL041W): 1.5 | The level of expressed mRNA in the presence of chemical substance/The level of expressed mRNA in the absence of chemical substance (yeast gene YKL096W): 0.5 | The level of expressed mRNA in the presence of chemical substance/The level of expressed mRNA in the absence of chemical substance (yeast gene YKL165C): 0.4 | The level of expressed mRNA in the presence of chemical substance/The level of expressed mRNA in the absence of chemical substance (yeast gene YKL193C): 1.6 | The level of expressed mRNA in the presence of chemical substance/The level of expressed mRNA in the absence of chemical substance (yeast gene YLR120C): 1.6 | The level of expressed mRNA in the presence of chemical substance/The level of expressed mRNA in the absence of chemical substance (yeast gene YLR136C): 6.0 | The level of expressed mRNA in the presence of chemical substance/The level of expressed mRNA in the absence of chemical substance (yeast gene YLR178C): 4.1 | The level of expressed mRNA in the presence of chemical substance/The level of expressed mRNA in the absence of chemical substance (yeast gene YLR250W): 2.4 | The level of expressed mRNA in the presence of chemical substance/The level of expressed mRNA in the absence of chemical substance (yeast gene YLR327C): 8.3 | The level of expressed mRNA in the presence of chemical substance/The level of expressed mRNA in the absence of chemical substance (yeast gene YLR356W): 1.6 | The level of expressed mRNA in the presence of chemical substance/The level of expressed mRNA in the absence of chemical substance (yeast gene YLR362W): 3.3 | The level of expressed mRNA in the presence of chemical substance/The level of expressed mRNA in the absence of chemical substance (yeast gene YLR391W): 0.7 | The level of expressed mRNA in the presence of chemical substance/The level of expressed mRNA in the absence of chemical substance (yeast gene YLR429W): 1.3 | The level of expressed mRNA in the presence of chemical substance/The level of expressed mRNA in the absence of chemical substance (yeast gene YMR004W): 3.4 | The level of expressed mRNA in the presence of chemical substance/The level of expressed mRNA in the absence of chemical substance (yeast gene YMR094W): 0.9 | The level of expressed mRNA in the presence of chemical substance/The level of expressed mRNA in the absence of chemical substance (yeast gene YMR104C): 3.2 | The level of expressed mRNA in the presence of chemical substance/The level of expressed mRNA in the absence of chemical substance (yeast gene YMR219W): 0.9 | The level of expressed mRNA in the presence of chemical substance/The level of expressed mRNA in the absence of chemical substance (yeast gene YMR226C): 2.2 | The level of expressed mRNA in the presence of chemical substance/The level of expressed mRNA in the absence of chemical substance (yeast gene YMR275C): 2.1 | The level of expressed mRNA in the presence of chemical substance/The level of expressed mRNA in the absence of chemical substance (yeast gene YMR276W): 1.7 | The level of expressed mRNA in the presence of chemical substance/The level of expressed mRNA in the absence of chemical substance (yeast gene YMR314W): 2.7 | The level of expressed mRNA in the presence of chemical substance/The level of expressed mRNA in the absence of chemical substance (yeast gene YNL006W): 4.0 | The level of expressed mRNA in the presence of chemical substance/The level of expressed mRNA in the absence of chemical substance (yeast gene YNL007C): 1.7 | The level of expressed mRNA in the presence of chemical substance/The level of expressed mRNA in the absence of chemical substance (yeast gene YNL093W): 2.0 | The level of expressed mRNA in the presence of chemical substance/The level of expressed mRNA in the absence of chemical substance (yeast gene YNL333W): 2.1 | The level of expressed mRNA in the presence of chemical substance/The level of expressed mRNA in the absence of chemical substance (yeast gene YNR010W): 0.9 | The level of expressed mRNA in the presence of chemical substance/The level of expressed mRNA in the absence of chemical substance (yeast gene YNR069C): 5.8 | The level of expressed mRNA in the presence of chemical substance/The level of expressed mRNA in the absence of chemical substance (yeast gene YOL013C): 1.0 | The level of expressed mRNA in the presence of chemical substance/The level of expressed mRNA in the absence of chemical substance (yeast gene YOL164W): 3.6 | The level of expressed mRNA in the presence of chemical substance/The level of expressed mRNA in the absence of chemical substance (yeast gene YOR036W): 1.9 | The level of expressed mRNA in the presence of chemical substance/The level of expressed mRNA in the absence of chemical substance (yeast gene YOR117W): 1.8 | The level of expressed mRNA in the presence of chemical substance/The level of expressed mRNA in the absence of chemical substance (yeast gene YOR124C): 1.9 | The level of expressed mRNA in the presence of chemical substance/The level of expressed mRNA in the absence of chemical substance (yeast gene YOR132W): 1.6 | The level of expressed mRNA in the presence of chemical substance/The level of expressed mRNA in the absence of chemical substance (yeast gene YOR157C): 2.6 | The level of expressed mRNA in the presence of chemical substance/The level of expressed mRNA in the absence of chemical substance (yeast gene YOR181W): 0.5 | The level of expressed mRNA in the presence of chemical substance/The level of expressed mRNA in the absence of chemical substance (yeast gene YOR185C): 2.9 | The level of expressed mRNA in the presence of chemical substance/The level of expressed mRNA in the absence of chemical substance (yeast gene YOR198C): 1.4 | The level of expressed mRNA in the presence of chemical substance/The level of expressed mRNA in the absence of chemical substance (yeast gene YOR259C): 1.5 | The level of expressed mRNA in the presence of chemical substance/The level of expressed mRNA in the absence of chemical substance (yeast gene YOR261C): 2.5 | The level of expressed mRNA in the presence of chemical substance/The level of expressed mRNA in the absence of chemical substance (yeast gene YOR288C): 1.0 | The level of expressed mRNA in the presence of chemical substance/The level of expressed mRNA in the absence of chemical substance (yeast gene YOR355W): 0.8 | The level of expressed mRNA in the presence of chemical substance/The level of expressed mRNA in the absence of chemical substance (yeast gene YOR383C): 4.5 | The level of expressed mRNA in the presence of chemical substance/The level of expressed mRNA in the absence of chemical substance (yeast gene YPL089C): 2.5 | The level of expressed mRNA in the presence of chemical substance/The level of expressed mRNA in the absence of chemical substance (yeast gene YPL109C): 1.5 | The level of expressed mRNA in the presence of chemical substance/The level of expressed mRNA in the absence of chemical substance (yeast gene YPL149W): 3.7 | The level of expressed mRNA in the presence of chemical substance/The level of expressed mRNA in the absence of chemical substance (yeast gene YPL154C): 1.7 | The level of expressed mRNA in the presence of chemical substance/The level of expressed mRNA in the absence of chemical substance (yeast gene YPR103W): 2.0 | The level of expressed mRNA in the presence of chemical substance/The level of expressed mRNA in the absence of chemical substance (yeast gene YPR108W): 2.8
